# Reference: patent US20240382629A1, “HETEROBIVALENT AND HOMOBIVALENT AGENTS TARGETING FIBROBLAST ACTIVATION PROTEIN ALPHA AND/OR PROSTATE-SPECIFIC MEMBRANE ANTIGEN” (The Johns Hopkins University, priority 2021, published 2024)
# Values joined by “and” are separate entries in the source; they are usually repeats but may differ in a detail not shown here. Equal entries are not always repeated.
# Test: Biodistribution of [^18F]JHU122047 with UAMC-01110 blocker
# Type: in vivo, mouse
# Details: 60 min; for % ID/g Bladder / % ID/g Blood / % ID/g Brain / % ID/g Fat / % ID/g Femur / % ID/g Heart / % ID/g Kidney / % ID/g Large intestine / % ID/g Liver / % ID/g Lung / % ID/g Muscle / % ID/g Pancreas / % ID/g Salivery gland / % ID/g Small intestine / % ID/g Spleen / % ID/g Stomach / % ID/g Tumor: individual mouse
# [1] = NOD/SCID Model, + Blocker (UAMC-01110)
# [2] = Nude Model, + Blocker (UAMC-01110)
smiles,measurement,setting,value
N#C[C@@H]1CCCN1C(=O)CNC(=O)c1ccnc2ccc(OCCCNC(=O)[C@H](CCNC(=O)c3ccc([18F])nc3)NC(=O)CN3CCN(CC(=O)[O-])CCN(CC(=O)[O-])CCN(CC(=O)[O-])CC3)cc12.[In+3] [[^18F]Sri-08-51],% ID/g Bladder,[1],13.35 % ID/g and 61.94 % ID/g
same,% ID/g Blood,[1],0.22 % ID/g and 0.40 % ID/g
same,% ID/g Brain,[1],0.02 % ID/g and 1.02 % ID/g
same,% ID/g Fat,[1],0.06 % ID/g
same,% ID/g Femur,[1],0.88 % ID/g and 0.38 % ID/g
same,% ID/g Heart,[1],0.11 % ID/g and 0.25 % ID/g
same,% ID/g Kidney,[1],1.42 % ID/g and 1.40 % ID/g
same,% ID/g Large intestine,[1],0.19 % ID/g and 0.35 % ID/g
same,% ID/g Liver,[1],4.02 % ID/g and 8.14 % ID/g
same,% ID/g Lung,[1],0.32 % ID/g and 0.61 % ID/g
same,% ID/g Muscle,[1],0.07 % ID/g and 0.49 % ID/g
same,% ID/g Pancreas,[1],0.08 % ID/g and 0.17 % ID/g
same,% ID/g Salivery gland,[1],0.45 % ID/g and 0.26 % ID/g
same,% ID/g Small intestine,[1],0.94 % ID/g and 2.12 % ID/g
same,% ID/g Spleen,[1],0.14 % ID/g and 0.32 % ID/g
same,% ID/g Stomach,[1],0.25 % ID/g and 0.45 % ID/g
same,% ID/g Tumor,[1],1.34 % ID/g and 0.91 % ID/g
same,% ID/g Bladder Mean,[1],37.64 % ID/g
same,% ID/g Blood Mean,[1],0.31 % ID/g
same,% ID/g Brain Mean,[1],0.52 % ID/g
same,% ID/g Fat Mean,[1],0.06 % ID/g
same,% ID/g Femur Mean,[1],0.88 % ID/g
same,% ID/g Heart Mean,[1],0.18 % ID/g
same,% ID/g Kidney Mean,[1],1.41 % ID/g
same,% ID/g Large intestine Mean,[1],0.27 % ID/g
same,% ID/g Liver Mean,[1],6.08 % ID/g
same,% ID/g Lung Mean,[1],0.47 % ID/g
same,% ID/g Muscle Mean,[1],0.28 % ID/g
same,% ID/g Pancreas Mean,[1],0.13 % ID/g
same,% ID/g Salivary gland Mean,[1],0.35 % ID/g
same,% ID/g Small intestine Mean,[1],1.53 % ID/g
same,% ID/g Spleen Mean,[1],0.23 % ID/g
same,% ID/g Stomach Mean,[1],0.35 % ID/g
same,% ID/g Tumor Mean,[1],1.13 % ID/g
same,% ID/g Bladder,"NOD/SCID Model, no blocker",44.77 % ID/g and 23.08 % ID/g
same,% ID/g Blood,"NOD/SCID Model, no blocker",4.18 % ID/g and 5.83 % ID/g
same,% ID/g Brain,"NOD/SCID Model, no blocker",0.26 % ID/g and 0.25 % ID/g
same,% ID/g Fat,"NOD/SCID Model, no blocker",2.81 % ID/g and 0.45 % ID/g
same,% ID/g Femur,"NOD/SCID Model, no blocker",4.83 % ID/g and 5.16 % ID/g
same,% ID/g Heart,"NOD/SCID Model, no blocker",1.74 % ID/g and 2.39 % ID/g
same,% ID/g Kidney,"NOD/SCID Model, no blocker",2.10 % ID/g and 2.19 % ID/g
same,% ID/g Large intestine,"NOD/SCID Model, no blocker",1.91 % ID/g and 1.87 % ID/g
same,% ID/g Liver,"NOD/SCID Model, no blocker",3.23 % ID/g and 4.21 % ID/g
same,% ID/g Lung,"NOD/SCID Model, no blocker",2.77 % ID/g and 2.76 % ID/g
same,% ID/g Muscle,"NOD/SCID Model, no blocker",2.84 % ID/g and 2.83 % ID/g
same,% ID/g Pancreas,"NOD/SCID Model, no blocker",3.99 % ID/g and 4.82 % ID/g
same,% ID/g Salivery gland,"NOD/SCID Model, no blocker",12.48 % ID/g and 14.32 % ID/g
same,% ID/g Small intestine,"NOD/SCID Model, no blocker",2.09 % ID/g
same,% ID/g Spleen,"NOD/SCID Model, no blocker",1.27 % ID/g and 1.71 % ID/g
same,% ID/g Stomach,"NOD/SCID Model, no blocker",1.65 % ID/g and 1.75 % ID/g
same,% ID/g Tumor,"NOD/SCID Model, no blocker",16.64 % ID/g and 15.98 % ID/g
same,% ID/g Bladder Mean,"NOD/SCID Model, no blocker",33.92 % ID/g
same,% ID/g Blood Mean,"NOD/SCID Model, no blocker",5.01 % ID/g
same,% ID/g Brain Mean,"NOD/SCID Model, no blocker",0.25 % ID/g
same,% ID/g Fat Mean,"NOD/SCID Model, no blocker",1.63 % ID/g
same,% ID/g Femur Mean,"NOD/SCID Model, no blocker",5.00 % ID/g
same,% ID/g Heart Mean,"NOD/SCID Model, no blocker",2.07 % ID/g
same,% ID/g Kidney Mean,"NOD/SCID Model, no blocker",2.15 % ID/g
same,% ID/g Large intestine Mean,"NOD/SCID Model, no blocker",1.89 % ID/g
same,% ID/g Liver Mean,"NOD/SCID Model, no blocker",3.72 % ID/g
same,% ID/g Lung Mean,"NOD/SCID Model, no blocker",2.77 % ID/g
same,% ID/g Muscle Mean,"NOD/SCID Model, no blocker",2.84 % ID/g
same,% ID/g Pancreas Mean,"NOD/SCID Model, no blocker",4.40 % ID/g
same,% ID/g Salivary gland Mean,"NOD/SCID Model, no blocker",13.40 % ID/g
same,% ID/g Small intestine Mean,"NOD/SCID Model, no blocker",2.09 % ID/g
same,% ID/g Spleen Mean,"NOD/SCID Model, no blocker",1.49 % ID/g
same,% ID/g Stomach Mean,"NOD/SCID Model, no blocker",1.70 % ID/g
same,% ID/g Tumor Mean,"NOD/SCID Model, no blocker",16.31 % ID/g
same,% ID/g Bladder,[2],0.22 % ID/g and 0.74 % ID/g
same,% ID/g Blood,[2],0.10 % ID/g
same,% ID/g Brain,[2],0.01 % ID/g
same,% ID/g Fat,[2],0.03 % ID/g and 0.01 % ID/g
same,% ID/g Femur,[2],0.12 % ID/g
same,% ID/g Heart,[2],0.05 % ID/g
same,% ID/g Kidney,[2],1.19 % ID/g and 1.05 % ID/g
same,% ID/g Large intestine,[2],0.08 % ID/g and 0.11 % ID/g
same,% ID/g Liver,[2],1.88 % ID/g and 2.01 % ID/g
same,% ID/g Lung,[2],0.21 % ID/g and 0.22 % ID/g
same,% ID/g Muscle,[2],0.07 % ID/g and 0.04 % ID/g
same,% ID/g Pancreas,[2],0.05 % ID/g
same,% ID/g Salivery gland,[2],0.07 % ID/g and 0.08 % ID/g
same,% ID/g Small intestine,[2],3.50 % ID/g and 2.97 % ID/g
same,% ID/g Spleen,[2],0.08 % ID/g
same,% ID/g Stomach,[2],0.08 % ID/g and 0.15 % ID/g
same,% ID/g Tumor,[2],0.17 % ID/g and 0.18 % ID/g
same,% ID/g Bladder Mean,[2],0.48 % ID/g
same,% ID/g Blood Mean,[2],0.10 % ID/g
same,% ID/g Brain Mean,[2],0.01 % ID/g
same,% ID/g Fat Mean,[2],0.02 % ID/g
same,% ID/g Femur Mean,[2],0.12 % ID/g
same,% ID/g Heart Mean,[2],0.05 % ID/g
same,% ID/g Kidney Mean,[2],1.12 % ID/g
same,% ID/g Large intestine Mean,[2],0.09 % ID/g
same,% ID/g Liver Mean,[2],1.95 % ID/g
same,% ID/g Lung Mean,[2],0.21 % ID/g
same,% ID/g Muscle Mean,[2],0.05 % ID/g
same,% ID/g Pancreas Mean,[2],0.05 % ID/g
same,% ID/g Salivary gland Mean,[2],0.08 % ID/g
same,% ID/g Small intestine Mean,[2],3.24 % ID/g
same,% ID/g Spleen Mean,[2],0.08 % ID/g
same,% ID/g Stomach Mean,[2],0.11 % ID/g
same,% ID/g Tumor Mean,[2],0.18 % ID/g
same,% ID/g Bladder,"Nude Model, no blocker",1.18 % ID/g and 2.99 % ID/g
same,% ID/g Blood,"Nude Model, no blocker",3.06 % ID/g and 3.20 % ID/g
same,% ID/g Brain,"Nude Model, no blocker",0.09 % ID/g and 0.08 % ID/g
same,% ID/g Fat,"Nude Model, no blocker",0.52 % ID/g and 0.77 % ID/g
same,% ID/g Femur,"Nude Model, no blocker",4.44 % ID/g and 3.86 % ID/g
same,% ID/g Heart,"Nude Model, no blocker",1.35 % ID/g and 1.52 % ID/g
same,% ID/g Kidney,"Nude Model, no blocker",1.69 % ID/g and 1.72 % ID/g
same,% ID/g Large intestine,"Nude Model, no blocker",1.20 % ID/g and 1.30 % ID/g
same,% ID/g Liver,"Nude Model, no blocker",1.81 % ID/g and 1.93 % ID/g
same,% ID/g Lung,"Nude Model, no blocker",2.03 % ID/g and 2.25 % ID/g
same,% ID/g Muscle,"Nude Model, no blocker",1.86 % ID/g and 1.93 % ID/g
same,% ID/g Pancreas,"Nude Model, no blocker",3.94 % ID/g and 3.77 % ID/g
same,% ID/g Salivery gland,"Nude Model, no blocker",7.74 % ID/g
same,% ID/g Small intestine,"Nude Model, no blocker",1.93 % ID/g and 1.63 % ID/g
same,% ID/g Spleen,"Nude Model, no blocker",0.90 % ID/g and 1.02 % ID/g
same,% ID/g Stomach,"Nude Model, no blocker",1.06 % ID/g and 1.16 % ID/g
same,% ID/g Tumor,"Nude Model, no blocker",10.87 % ID/g and 13.08 % ID/g
same,% ID/g Bladder Mean,"Nude Model, no blocker",2.09 % ID/g
same,% ID/g Blood Mean,"Nude Model, no blocker",3.13 % ID/g
same,% ID/g Brain Mean,"Nude Model, no blocker",0.09 % ID/g
same,% ID/g Fat Mean,"Nude Model, no blocker",0.64 % ID/g
same,% ID/g Femur Mean,"Nude Model, no blocker",4.15 % ID/g
same,% ID/g Heart Mean,"Nude Model, no blocker",1.43 % ID/g
same,% ID/g Kidney Mean,"Nude Model, no blocker",1.70 % ID/g
same,% ID/g Large intestine Mean,"Nude Model, no blocker",1.25 % ID/g
same,% ID/g Liver Mean,"Nude Model, no blocker",1.87 % ID/g
same,% ID/g Lung Mean,"Nude Model, no blocker",2.14 % ID/g
same,% ID/g Muscle Mean,"Nude Model, no blocker",1.90 % ID/g
same,% ID/g Pancreas Mean,"Nude Model, no blocker",3.85 % ID/g
same,% ID/g Salivary gland Mean,"Nude Model, no blocker",8.22 % ID/g
same,% ID/g Small intestine Mean,"Nude Model, no blocker",1.78 % ID/g
same,% ID/g Spleen Mean,"Nude Model, no blocker",0.96 % ID/g
same,% ID/g Stomach Mean,"Nude Model, no blocker",1.11 % ID/g
same,% ID/g Tumor Mean,"Nude Model, no blocker",11.97 % ID/g
